Counter-ions that a name gives are not always drawn. Like-named read-outs stand apart in the source and are kept apart here.
Tests used:
Format in all cases: biochemical
[1] = target: T1, human JAK1 (a.a. 837-1142) (Homo sapiens, UniProt P23458); experiment: In vitro JAK kinase assay (HTRF, phosphorylation of a biotinylated peptide), JAK1; details: read-out: JAK1 IC50
T1 construct: human JAK1 (a.a. 837-1142); His tag (N); made in house; host or cells: insect cells (baculovirus)
Procedure, shortened: (§1)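 Phosphorylation of a biotinylated peptide by the JAK kinase domain, detected by HTRF with Eu-Py20 and SA-APC. ATP was 90 μM for JAK1, 30 μM for JAK2 and 3 μM for JAK3. Reactions ran 1 h at room temperature and were stopped with EDTA, followed by 40 min antibody binding.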

[2] = target: T2, human JAK3 (a.a. 781-1124) (Homo sapiens, UniProt P52333); experiment: In vitro JAK kinase assay (HTRF, phosphorylation of a biotinylated peptide), JAK3
T2 construct: JAK3 (a.a. 781-1124); His tag (N); made in house; host or cells: insect cells (baculovirus)
T2 sequence (P52333 781-1124): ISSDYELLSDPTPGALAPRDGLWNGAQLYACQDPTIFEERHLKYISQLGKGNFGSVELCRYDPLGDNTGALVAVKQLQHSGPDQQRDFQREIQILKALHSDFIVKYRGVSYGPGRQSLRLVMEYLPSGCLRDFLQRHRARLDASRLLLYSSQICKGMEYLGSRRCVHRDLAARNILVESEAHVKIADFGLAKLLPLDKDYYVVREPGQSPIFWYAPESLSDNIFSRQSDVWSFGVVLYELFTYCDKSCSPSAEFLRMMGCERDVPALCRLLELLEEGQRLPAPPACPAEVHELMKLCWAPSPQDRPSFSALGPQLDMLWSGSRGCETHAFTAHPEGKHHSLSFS
Procedure, shortened: as §1

[3] = target: TYK2 (Homo sapiens, UniProt P29597); experiment: TYK2 kinase inhibition (Table A1)
TYK2, sequence (P29597 whole entry): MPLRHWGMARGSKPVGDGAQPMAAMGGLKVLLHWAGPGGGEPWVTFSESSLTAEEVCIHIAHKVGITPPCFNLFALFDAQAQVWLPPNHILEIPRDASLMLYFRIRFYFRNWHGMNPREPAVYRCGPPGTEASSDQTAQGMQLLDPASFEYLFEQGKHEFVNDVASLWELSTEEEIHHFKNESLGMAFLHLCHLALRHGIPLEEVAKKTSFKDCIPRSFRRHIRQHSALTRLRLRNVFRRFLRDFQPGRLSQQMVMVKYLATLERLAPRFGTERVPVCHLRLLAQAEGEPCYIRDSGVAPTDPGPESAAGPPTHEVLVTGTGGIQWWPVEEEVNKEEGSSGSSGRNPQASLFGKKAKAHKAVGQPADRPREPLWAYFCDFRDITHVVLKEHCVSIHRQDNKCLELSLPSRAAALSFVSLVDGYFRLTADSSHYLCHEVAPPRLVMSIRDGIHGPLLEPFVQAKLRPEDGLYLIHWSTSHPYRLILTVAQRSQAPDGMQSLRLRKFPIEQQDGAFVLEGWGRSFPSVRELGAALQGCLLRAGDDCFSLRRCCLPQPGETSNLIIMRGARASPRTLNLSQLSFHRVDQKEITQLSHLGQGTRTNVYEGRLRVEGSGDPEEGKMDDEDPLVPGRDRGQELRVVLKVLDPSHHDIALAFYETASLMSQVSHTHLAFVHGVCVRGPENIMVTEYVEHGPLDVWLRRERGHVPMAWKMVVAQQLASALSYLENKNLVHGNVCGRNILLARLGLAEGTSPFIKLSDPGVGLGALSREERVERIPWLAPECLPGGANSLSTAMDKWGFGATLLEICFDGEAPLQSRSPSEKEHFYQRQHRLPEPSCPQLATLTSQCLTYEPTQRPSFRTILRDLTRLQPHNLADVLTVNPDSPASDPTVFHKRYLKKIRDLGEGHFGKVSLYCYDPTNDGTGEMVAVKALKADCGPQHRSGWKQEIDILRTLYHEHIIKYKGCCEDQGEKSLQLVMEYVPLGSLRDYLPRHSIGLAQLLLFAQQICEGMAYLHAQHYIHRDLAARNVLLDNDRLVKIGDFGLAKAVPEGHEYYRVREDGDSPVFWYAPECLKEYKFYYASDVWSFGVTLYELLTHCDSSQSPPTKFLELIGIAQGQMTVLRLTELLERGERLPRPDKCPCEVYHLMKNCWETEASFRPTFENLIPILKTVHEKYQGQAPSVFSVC

[4] = target: T3, human JAK2 (a.a. 828-1132) (Homo sapiens, UniProt O60674); experiment: In vitro JAK kinase assay (HTRF, phosphorylation of a biotinylated peptide), JAK2
T3 construct: JAK2 (a.a. 828-1132); His tag (N); made in house; host or cells: insect cells (baculovirus)
T3 sequence (O60674 828-1132): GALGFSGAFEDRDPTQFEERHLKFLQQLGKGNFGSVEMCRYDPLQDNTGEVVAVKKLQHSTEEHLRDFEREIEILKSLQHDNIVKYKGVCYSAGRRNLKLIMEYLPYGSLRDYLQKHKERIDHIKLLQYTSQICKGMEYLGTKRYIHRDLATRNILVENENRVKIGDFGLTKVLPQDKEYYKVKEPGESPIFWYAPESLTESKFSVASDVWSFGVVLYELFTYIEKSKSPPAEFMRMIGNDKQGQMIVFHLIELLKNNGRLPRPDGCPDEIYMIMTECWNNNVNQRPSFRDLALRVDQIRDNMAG
Procedure, shortened: as §1

[5] = target: T4, Recombinant Human Anaplastic Lymphoma Kinase (Homo sapiens, UniProt Q9UM73); experiment: ALK HTRF kinase assay
T4 construct: purchased Invitrogen, Carlsbad, Calif
T4 sequence (Q9UM73 19-1620): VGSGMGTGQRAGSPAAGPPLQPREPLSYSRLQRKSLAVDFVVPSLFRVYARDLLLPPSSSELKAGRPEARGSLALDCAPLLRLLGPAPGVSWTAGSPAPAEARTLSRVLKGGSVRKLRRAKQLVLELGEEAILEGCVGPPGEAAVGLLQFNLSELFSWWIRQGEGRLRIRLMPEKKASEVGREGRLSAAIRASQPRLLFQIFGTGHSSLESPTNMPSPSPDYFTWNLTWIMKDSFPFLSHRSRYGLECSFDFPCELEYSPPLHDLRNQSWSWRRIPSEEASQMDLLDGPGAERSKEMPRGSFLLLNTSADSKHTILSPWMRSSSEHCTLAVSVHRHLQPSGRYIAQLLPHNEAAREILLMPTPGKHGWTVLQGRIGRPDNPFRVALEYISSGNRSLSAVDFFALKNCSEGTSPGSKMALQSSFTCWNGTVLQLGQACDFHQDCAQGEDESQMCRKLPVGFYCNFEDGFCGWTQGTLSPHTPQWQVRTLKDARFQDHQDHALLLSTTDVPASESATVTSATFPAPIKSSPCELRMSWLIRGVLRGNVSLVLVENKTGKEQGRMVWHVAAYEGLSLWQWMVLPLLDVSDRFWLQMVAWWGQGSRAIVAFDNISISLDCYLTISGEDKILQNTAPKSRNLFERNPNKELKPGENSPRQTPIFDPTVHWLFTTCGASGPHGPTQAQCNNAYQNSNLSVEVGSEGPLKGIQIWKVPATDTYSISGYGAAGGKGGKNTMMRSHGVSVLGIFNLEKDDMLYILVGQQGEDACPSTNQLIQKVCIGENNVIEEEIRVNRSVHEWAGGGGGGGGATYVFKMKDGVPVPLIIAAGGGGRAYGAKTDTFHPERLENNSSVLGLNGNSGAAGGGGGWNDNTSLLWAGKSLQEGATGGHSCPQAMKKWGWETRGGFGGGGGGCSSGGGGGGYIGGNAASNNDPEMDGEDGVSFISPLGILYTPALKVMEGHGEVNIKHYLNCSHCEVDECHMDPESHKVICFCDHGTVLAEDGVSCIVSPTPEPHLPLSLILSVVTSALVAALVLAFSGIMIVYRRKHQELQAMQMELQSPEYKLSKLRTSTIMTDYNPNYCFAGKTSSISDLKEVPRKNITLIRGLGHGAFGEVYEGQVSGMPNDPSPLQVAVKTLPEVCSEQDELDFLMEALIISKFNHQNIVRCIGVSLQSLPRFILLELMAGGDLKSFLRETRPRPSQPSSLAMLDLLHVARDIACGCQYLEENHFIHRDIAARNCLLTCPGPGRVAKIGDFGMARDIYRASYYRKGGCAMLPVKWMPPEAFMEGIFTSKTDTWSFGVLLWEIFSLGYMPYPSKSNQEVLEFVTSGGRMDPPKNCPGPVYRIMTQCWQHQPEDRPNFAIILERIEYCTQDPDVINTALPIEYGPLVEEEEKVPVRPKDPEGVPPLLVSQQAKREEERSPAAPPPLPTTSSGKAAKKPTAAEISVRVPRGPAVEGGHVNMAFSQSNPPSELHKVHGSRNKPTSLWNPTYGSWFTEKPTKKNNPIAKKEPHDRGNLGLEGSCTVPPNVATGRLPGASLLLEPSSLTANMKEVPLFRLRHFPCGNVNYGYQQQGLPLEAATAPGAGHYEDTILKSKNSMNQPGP
Procedure, shortened: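 Recombinant human ALK with biotinylated peptide substrate; phosphorylation detected by HTRF using Eu-labelled anti-phosphotyrosine antibody and streptavidin-allophycocyanin. IC50 from a sigmoidal fit with Hill slope.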

[6] = method AA1 (90 μM ATP) or AA2 (1000 μM ATP), not stated per value
[7] = method AA1 (3 μM ATP) or AA2 (1000 μM ATP), not stated per value
[8] = method AA1 (30 μM ATP) or AA2 (1000 μM ATP), not stated per value
[9] = compound at 500 nM or 1 mM, 90 μM ATP
[10] = compound at a concentration of 500 nM or 1 mM (not specified), cells shown as percentage
[11] = Table B1, cells without percent sign

T1 sequence (P23458 849-1154): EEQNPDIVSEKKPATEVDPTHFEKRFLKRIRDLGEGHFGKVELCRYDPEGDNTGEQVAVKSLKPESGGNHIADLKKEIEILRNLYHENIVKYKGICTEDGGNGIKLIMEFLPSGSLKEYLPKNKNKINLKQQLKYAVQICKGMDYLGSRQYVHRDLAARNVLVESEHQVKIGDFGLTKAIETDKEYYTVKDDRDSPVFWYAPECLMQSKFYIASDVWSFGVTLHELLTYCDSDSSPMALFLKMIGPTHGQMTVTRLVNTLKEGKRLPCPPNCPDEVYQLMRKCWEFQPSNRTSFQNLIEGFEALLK

| Structure (SMILES) | IC50 [1, 6] [nM] | IC50 [2, 7] [nM] | IC50 [3] [nM] | IC50 [4, 8] [nM] | ALK % of inhibition at a concentration of 500 nM or 1 mM [5, 9] [%] | IC50 ([1]; Table B1) [nM] | IC50 ([2]; Table B1) [nM] | IC50 ([3]; Table B1) [nM] | IC50 ([4]; Table B1) [nM] | IC50 [5, 11] [nM] | also measured |
| --- | --- | --- | --- | --- | --- | --- | --- | --- | --- | --- | --- |
| CS(=O)(=O)N1CCN(c2ccc(-c3cc4cc(c3)Nc3ncc(Cl)c(n3)Nc3cccc(c3)OCC4)cn2)CC1 [Example D38, 6-Chloro-19-{6-[4-(methylsulfonyl)piperazin-1-yl]pyridin-3-yl}-14-oxa-2,4,8,23-tetraazatetracyclo[15.3.1.1(3,7).1(9,13)]tricosa-1(21),3(23),4,6,9(22),10,12,17,19-nonaene bis(trifluoroacetate)] |  |  |  |  |  |  |  |  |  |  | IC50 ([1]; Table D1): 1.1 nM; IC50 ([2]; Table D1): 19 nM; IC50 ([3]; Table D1): 4 nM; IC50 ([4]; Table D1): 0.9 nM; IC50 ([5]; Table D1, 90 μM ATP): 442 nM |
| O=C(CC1CCN(C(=O)c2cnccn2)CC1)Nc1ccc2cc1CCc1cccc(c1)Nc1ncc(Cl)c(n1)N2 [Example A87, N-[6-Chloro-2,4,8,22-tetraazatetracyclo[14.3.1.1(3,7).1(9,13)]docosa-1(20),3(22),4,6,9(21),10,12,16,18-nonaen-12-yl]-2-[1-(pyrazin-2-ylcarbonyl)piperidin-4-yl]acetamide bis(trifluoroacetate)] | 14 | 56 | 12 | 9.8 | 31 |  |  |  |  |  |  |
| Clc1cnc2nc1Nc1cccc(c1)CCSCc1cccc(c1)N2 [Example D34, 6-Chloro-16-thia-2,4,8,24-tetraazatetracyclo[16.3.1.1(3,7).1(9,13)]tetracosa-1(22),3(24),4,6,9(23),10,12,18,20-nonaene trifluoroacetate] |  |  |  |  |  |  |  |  |  |  | IC50 ([1]; Table D1): 123 nM; IC50 ([2]; Table D1): 136 nM; IC50 ([3]; Table D1): 211 nM; IC50 ([4]; Table D1): 91 nM; IC50 ([5]; Table D1, 90 μM ATP): > 1000 nM |
| O=C(Nc1ccc2cc1CCc1cccc(c1)Nc1ncc(Cl)c(n1)N2)c1cccc(C(F)(F)F)c1 [Example B76, N-[6-Chloro-2,4,8,22-tetraazatetracyclo[14.3.1.1(3,7).1(9,13)]docosa-1(20), 3(22),4,6,9(21),10,12,16,18-nonaen-12-yl]-3-(trifluoromethyl)benzamide trifluoroacetate] |  |  |  |  |  | 33 | 61 | 25 | 14 |  | ALK % of inhibition at a concentration of 500 nM or 1 mM [5, 10]: 28% |
| O=C(Nc1ccccc1Cl)c1cc2cc(c1)Nc1nc(ncc1Cl)Nc1cccc(c1)CC2 [Example B14, 6-Chloro-N-(2-chlorophenyl)-2,4,8,22-tetraazatetracyclo[14.3.1.1(3,7).1(9,13)]docosa-1(20),3(22),4,6,9(21),10,12,16,18-nonaene-11-carboxamide trifluoroacetate] |  |  |  |  |  | 232 | 314 | > 1000 | 119 | > 1000 |  |
| O=C(CC1CCN(C(=O)Nc2ccccc2)CC1)Nc1ccc2cc1CCc1cccc(c1)Nc1ncc(Cl)c(n1)N2 [Example A58, 4-(2-{[6-Chloro-2,4,8,22-tetraazatetracyclo[14.3.1.1(3,7).1(9,13)]docosa-1(20),3(22),4,6,9(21),10,12,16,18-nonaen-12-yl]amino}-2-oxoethyl)-N-phenylpiperidine-1-carboxamide trifluoroacetate] | 0.2 | 22 | 9.9 | 1.1 | 38 |  |  |  |  |  |  |
| O=C(Nc1ccc2cc1CCc1cccc(c1)Nc1ncc(Cl)c(n1)N2)NC1CCCC1 [Example B88, N-[6-Chloro-2,4,8,22-tetraazatetracyclo[14.3.1.1(3,7).1(9,13)]docosa-1(20), 3(22),4,6,9(21),10,12,16,18-nonaen-12-yl]-N′-cyclopentylurea trifluoroacetate] |  |  |  |  |  | 0.74 | 29 | 6.3 | 1.7 | 930 |  |
| O=C(Nc1ccc2cc1CCc1cccc(c1)Nc1ncc(Cl)c(n1)N2)C1CCCNC1 (stereo not shown) [Example A44, N-[6-Chloro-2,4,8,22-tetraazatetracyclo[14.3.1.1(3,7).1(9,13)]docosa-1(20), 3(22),4,6,9(21),10,12,16,18-nonaen-12-yl]piperidine-3-carboxamide bis(trifluoroacetate)] | 26 | 71 | 169 | 52 | 21 |  |  |  |  |  |  |
| CC(=O)N1CCCC(C(=O)Nc2ccc3cc2CCc2cccc(c2)Nc2ncc(Cl)c(n2)N3)C1 (stereo not shown) [Example A47, 1-Acetyl-N-[6-chloro-2,4,8,22-tetraazatetracyclo[14.3.1.1(3,7).1(9,13)]docosa-1(20),3(22),4,6,9(21),10,12,16,18-nonaen-12-yl]piperidine-3-carboxamide trifluoroacetate] | 17 | 25 | 39 | 6.9 | 26 |  |  |  |  |  |  |
| Cc1cc(C(=O)N2CCC(CC(=O)Nc3ccc4cc3CCc3cccc(c3)Nc3ncc(Cl)c(n3)N4)CC2)no1 [Example A86, N-[6-Chloro-2,4,8,22-tetraazatetracyclo[14.3.1.1(3,7).1(9,13)]docosa-1(20),3(22),4,6,9(21),10,12,16,18-nonaen-12-yl]-2-{1-[(5-methylisoxazol-3-yl)carbonyl]piperidin-4-yl}acetamide trifluoroacetate] | 0.8 | 29 | 1.5 | 2.2 | 32 |  |  |  |  |  |  |
| O=C(Nc1ccc2cc1CCc1cccc(c1)Nc1ncc(Cl)c(n1)N2)c1cnn2ccccc12 [Example B80, N-[6-Chloro-2,4,8,22-tetraazatetracyclo[14.3.1.1(3,7).1(9,13)]docosa-1(20),3(22),4,6,9(21),10,12,16,18-nonaen-12-yl]pyrazolo[1,5-a]pyridine-3-carboxamide bis(trifluoroacetate)] |  |  |  |  |  | 0.56 | 1.7 | 1.2 | 0.53 |  | ALK % of inhibition at a concentration of 500 nM or 1 mM [5, 10]: 73% |
| O=S(=O)(Nc1ccc2cc1CCc1cccc(c1)Nc1ncc(Cl)c(n1)N2)c1cccs1 [Example B146, N-[6-Chloro-2,4,8,22-tetraazatetracyclo[14.3.1.1(3,7).1(9,13)]docosa-1(20), 3(22),4,6,9(21),10,12,16,18-nonaen-12-yl]thiophene-2-sulfonamide trifluoroacetate] |  |  |  |  |  | 0.5 | 2.6 | 0.61 | 0.11 | 130 |  |
| O=C(Nc1ccc2cc1CCc1cccc(c1)Nc1ncc(Cl)c(n1)N2)c1ccccc1F [Example B38, N-[6-Chloro-2,4,8,22-tetraazatetracyclo[14.3.1.1(3,7).1(9,13)]docosa-1(20), 3(22),4,6,9(21),10,12,16,18-nonaen-12-yl]-2-fluorobenzamide trifluoroacetate] |  |  |  |  |  | 1.4 | 4 | 0.97 | 0.26 | 210 |  |
| N#Cc1ccc(S(=O)(=O)Nc2ccc3cc2CCc2cccc(c2)Nc2ncc(Cl)c(n2)N3)cc1 [Example B154, N-[6-Chloro-2,4,8,22-tetraazatetracyclo[14.3.1.1(3,7).1(9,13)]docosa-1(20), 3(22),4,6,9(21),10,12,16,18-nonaen-12-yl]-4-cyanobenzenesulfonamide trifluoroacetate] |  |  |  |  |  | 0.6 | 5.3 | 0.83 | 0.1 | 280 |  |

Source: US8871753B2, “Macrocyclic compounds and their use as kinase inhibitors” (Incyte Corporation, priority 2008, dated 2014)
